{"source": "patent US20070191365A1", "about": "“3,4,6-Substituted pyridazines for treating neuropathic pain and associated syndromes” (priority 2006, published 2007)", "origin": "cited, not measured here", "system": "animal model of Alzheimer's disease", "conditions": "Ranaivo et al., J Neurosci. (2006) 26:662-670", "data": [{"smiles": "c1ccc(-c2cc(-c3ccccc3)c(N3CCN(c4ncccn4)CC3)nn2)cc1", "note": "[4,6-diphenyl-3-(4-(pyrimidin-2-yl)piperazin-1-yl)pyridazine]", "values": [{"measurement": "efficacy in an animal model of Alzheimer's disease", "value": "exhibits efficacy"}]}]}
